Here are results for 6 compounds from paper PMC7838080, “Structural and Biochemical Insights Into Two BAHD Acyltransferases (AtSHT and AtSDT) Involved in Phenolamide Biosynthesis” (Frontiers in Plant Science, 2021).

The target in assay [1] is T1, AtSHT (Arabidopsis thaliana, UniProt O64470).
T1 construct: gene SHT; wild type in pET28a (NdeI/XhoI), E. coli BL21(DE3), Ni-NTA and gel filtration; model residues 1-451
T1 sequence (O64470 1-451): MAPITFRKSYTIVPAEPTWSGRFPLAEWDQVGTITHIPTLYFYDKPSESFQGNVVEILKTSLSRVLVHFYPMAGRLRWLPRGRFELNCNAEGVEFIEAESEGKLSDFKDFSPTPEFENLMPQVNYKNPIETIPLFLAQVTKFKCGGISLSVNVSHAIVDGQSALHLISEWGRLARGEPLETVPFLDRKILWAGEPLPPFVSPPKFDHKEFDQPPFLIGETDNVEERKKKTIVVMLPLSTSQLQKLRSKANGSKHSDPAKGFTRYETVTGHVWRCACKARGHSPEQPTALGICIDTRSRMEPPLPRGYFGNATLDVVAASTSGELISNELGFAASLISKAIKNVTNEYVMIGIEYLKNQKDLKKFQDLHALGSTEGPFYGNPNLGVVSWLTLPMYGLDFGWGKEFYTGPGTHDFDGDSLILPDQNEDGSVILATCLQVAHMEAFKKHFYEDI
The assay is described as follows: LC-MS product assay. Format: biochemical. As to conditions: 60 µM acyl donor, 200 µM spermidine, pH 7.5, 30 °C, 30 min.

Assay [2] addresses T1, AtSHT. The assay is described as follows: X-ray crystal structure. As to conditions: co-crystallised with spermidine and CoA; 2.3 Å; active site near His155. Format: binding.
In assay [3] the target is T1, AtSHT. The assay is described as follows: LC-MS product assay; X-ray crystal structure. The note with it: 200 µM spermidine, 60 µM feruloyl-CoA, pH 7.5, 30 °C, 30 min; ligand in crystal only possible electron density, pose docked. Format: biochemical.
The target in assay [4] is T2, AtSDT (Arabidopsis thaliana, UniProt O80467).
T2 construct: gene SDT; wild type in pET28a (NdeI/XhoI), E. coli BL21(DE3), Ni-NTA and gel filtration
T2 sequence (O80467 1-451): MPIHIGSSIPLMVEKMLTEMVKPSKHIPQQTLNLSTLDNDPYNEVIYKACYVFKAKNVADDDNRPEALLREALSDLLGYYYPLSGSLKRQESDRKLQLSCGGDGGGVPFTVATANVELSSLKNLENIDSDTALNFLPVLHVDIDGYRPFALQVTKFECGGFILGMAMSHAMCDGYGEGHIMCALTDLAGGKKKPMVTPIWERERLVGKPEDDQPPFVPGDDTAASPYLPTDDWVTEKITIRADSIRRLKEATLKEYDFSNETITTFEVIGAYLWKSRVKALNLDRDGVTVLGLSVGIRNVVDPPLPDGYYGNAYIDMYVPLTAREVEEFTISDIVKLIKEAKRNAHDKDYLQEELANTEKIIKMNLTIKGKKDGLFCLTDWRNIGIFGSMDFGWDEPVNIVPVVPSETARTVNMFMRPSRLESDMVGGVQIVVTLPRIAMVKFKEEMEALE
The assay is described as follows: LC-MS product assay; X-ray crystal structure. The format is biochemical. The note with it: 200 µM spermidine, 60 µM sinapoyl-CoA, pH 7.5, 30 °C, 30 min; ligand in crystal only possible electron density, pose docked.

The target in assay [5] is T2, AtSDT. The assay is described as follows: LC-MS product assay. The format is biochemical. The note with it: 60 µM acyl donor, 200 µM spermidine, pH 7.5, 30 °C, 30 min.
Another assay concerns the target T3, NP_190301.2 (Arabidopsis thaliana, UniProt F4JAD2).
T3 construct: gene At3g47170; wild type in pET28a (NdeI/XhoI), E. coli BL21(DE3), Ni-NTA and gel filtration
T3 sequence (F4JAD2 1-468): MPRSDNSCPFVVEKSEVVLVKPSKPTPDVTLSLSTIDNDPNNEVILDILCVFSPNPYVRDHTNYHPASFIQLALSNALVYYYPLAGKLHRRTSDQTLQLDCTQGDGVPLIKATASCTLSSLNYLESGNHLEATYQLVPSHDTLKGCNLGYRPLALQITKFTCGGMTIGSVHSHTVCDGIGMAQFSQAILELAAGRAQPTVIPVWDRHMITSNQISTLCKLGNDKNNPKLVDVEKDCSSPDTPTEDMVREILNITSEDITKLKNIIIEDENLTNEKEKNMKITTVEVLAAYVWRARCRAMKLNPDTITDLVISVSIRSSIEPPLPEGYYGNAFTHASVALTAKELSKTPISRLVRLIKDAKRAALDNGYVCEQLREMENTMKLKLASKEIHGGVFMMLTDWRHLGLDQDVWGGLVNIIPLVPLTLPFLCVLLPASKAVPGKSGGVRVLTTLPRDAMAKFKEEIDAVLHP
The assay is described as follows: HPLC-MS product assay. The format is biochemical. The note with it: 200 µM putrescine, pH 7.5, 30 °C, 30 min.

In a further assay the target is T4, OAO95042.1 (Arabidopsis thaliana, UniProt F4K5C5).
T4 construct: gene At5g07080; wild type in pET28a (NdeI/XhoI), E. coli BL21(DE3), Ni-NTA and gel filtration
T4 sequence (F4K5C5 1-450): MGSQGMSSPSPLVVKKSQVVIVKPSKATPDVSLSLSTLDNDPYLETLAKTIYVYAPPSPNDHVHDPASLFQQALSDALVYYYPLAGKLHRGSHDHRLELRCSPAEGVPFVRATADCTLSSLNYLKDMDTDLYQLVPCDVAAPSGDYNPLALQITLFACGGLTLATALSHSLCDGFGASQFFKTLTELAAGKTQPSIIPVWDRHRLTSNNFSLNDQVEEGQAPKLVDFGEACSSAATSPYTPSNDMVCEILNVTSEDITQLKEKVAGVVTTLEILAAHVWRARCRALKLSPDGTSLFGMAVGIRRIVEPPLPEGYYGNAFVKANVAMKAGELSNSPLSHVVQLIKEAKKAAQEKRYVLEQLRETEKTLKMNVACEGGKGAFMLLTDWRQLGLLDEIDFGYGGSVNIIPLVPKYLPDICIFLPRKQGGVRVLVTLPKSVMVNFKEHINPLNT
The assay is described as follows: HPLC-MS product assay. The format is biochemical. The note with it: 200 µM putrescine, 60 µM caffeoyl-CoA, pH 7.5, 30 °C, 30 min.

As for `COc1cc(/C=C/C(=O)SCCNC(=O)CCNC(=O)[C@H](O)C(C)(C)COP(=O)(O)OP(=O)(O)OC[C@H]2O[C@@H](n3cnc4c(N)ncnc43)[C@H](O)[C@@H]2OP(=O)(O)O)ccc1O` [feruloyl-CoA], at AtSHT [1], the LC-MS product assay result is “wild-type AtSHT can efficiently convert spermidine and feruloyl-CoA to monoferuloyl spermidine”. As for `CC(C)(COP(=O)(O)OP(=O)(O)OC[C@H]1O[C@@H](n2cnc3c(N)ncnc32)[C@H](O)[C@@H]1OP(=O)(O)O)[C@@H](O)C(=O)NCCC(=O)NCCS` [CoA-HS], the X-ray crystal structure entry at AtSHT [2] was “The extra density near His155 was determined as CoA-HS”. On to `NCCCCNCCCN` [spermidine], for which the “LC-MS product assay; X-ray crystal structure” value is “wild-type AtSHT can efficiently convert spermidine and feruloyl-CoA to monoferuloyl spermidine” at AtSHT [3]; “wild-type AtSDT can efficiently couple spermidine with sinapoyl CoA to yield monosinapoyl” on AtSDT [4]. Consider `COc1cc(/C=C/C(=O)SCCNC(=O)CCNC(=O)[C@H](O)C(C)(C)COP(=O)(O)OP(=O)(O)OC[C@H]2O[C@@H](n3cnc4c(N)ncnc43)[C@H](O)[C@@H]2OP(=O)(O)O)cc(OC)c1O` [sinapoyl-CoA], for which the LC-MS product assay result on AtSDT [5] is “wild-type AtSDT can efficiently couple spermidine with sinapoyl CoA to yield monosinapoyl”. On to `CC(C)(COP(=O)(O)OP(=O)(O)OC[C@H]1O[C@@H](n2cnc3c(N)ncnc32)[C@H](O)[C@@H]1OP(=O)(O)O)[C@@H](O)C(=O)NCCC(=O)NCCSC(=O)/C=C/c1ccc(O)c(O)c1` [caffeoyl-CoA], for which the HPLC-MS product assay entry at NP_190301.2 (60 µM acyl donor) is “encoded enzymes that could efficiently convert putrescine and caffeoyl-CoA to di-caffeoyl putrescine”.

In the case of `NCCCCN` [putrescine], the HPLC-MS product assay result on OAO95042.1 is “encoded enzymes that could efficiently convert putrescine and caffeoyl-CoA to di-caffeoyl putrescine”; at NP_190301.2 (60 µM caffeoyl-CoA) it was “encoded enzymes that could efficiently convert putrescine and caffeoyl-CoA to di-caffeoyl putrescine”.
